ChEMBL document CHEMBL1909046, “DrugMatrix in vitro pharmacology data”
pIC50, pKi: −log10 of the molar value.

Key:
[1] = molecular target: Beta-1 adrenergic receptor (Homo sapiens, UniProt P08588); test: DRUGMATRIX: Adrenergic beta1 radioligand binding (ligand: [125I] Cyanopindolol); format: cell membranes, CHO-K1, Membrane; conditions: Not Active = under 50% inhibition at 10 µM; for IC50 / Ki: cho-k1; for pIC50: read-out: IC50; for pKi: read-out: Ki
[2] = DRUGMATRIX: Sigma2 radioligand binding (ligand: [3H] Ifenprodil); format: cell membranes, Rattus norvegicus, Wistar, Brain, Membrane; conditions: Not Active = under 50% inhibition at 10 µM
Endothelin-1 receptor = molecular target: T1, Endothelin-1 receptor (Homo sapiens, UniProt P25101); format: cell membranes, Membrane; conditions: cho-k1; further: in other assays of this panel Not Active means under 50% inhibition at 10 µM
T1 sequence (P25101 whole entry): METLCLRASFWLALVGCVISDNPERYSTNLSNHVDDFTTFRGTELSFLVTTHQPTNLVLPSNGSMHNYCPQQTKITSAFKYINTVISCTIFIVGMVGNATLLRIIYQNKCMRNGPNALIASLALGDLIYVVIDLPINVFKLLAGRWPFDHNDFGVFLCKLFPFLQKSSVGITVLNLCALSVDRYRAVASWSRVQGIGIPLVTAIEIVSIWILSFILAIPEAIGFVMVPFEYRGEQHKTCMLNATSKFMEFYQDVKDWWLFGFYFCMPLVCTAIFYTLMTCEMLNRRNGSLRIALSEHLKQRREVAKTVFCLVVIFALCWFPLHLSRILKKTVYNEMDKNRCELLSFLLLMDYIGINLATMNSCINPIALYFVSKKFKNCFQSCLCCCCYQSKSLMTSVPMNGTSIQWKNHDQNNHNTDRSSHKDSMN

[3] = molecular target: T2, Polyunsaturated fatty acid lipoxygenase ALOX15 (Oryctolagus cuniculus, UniProt P12530); test: biochemical; format: tissue-based, Reticulocytes; conditions: reticulocytes;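 further: inhibition of 15-lipoxygenase enzyme activity measured with linoleic acid as the substrate; in other assays of this panel Not Active means under 50% inhibition at 10 µM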
T2 sequence (P12530 whole entry): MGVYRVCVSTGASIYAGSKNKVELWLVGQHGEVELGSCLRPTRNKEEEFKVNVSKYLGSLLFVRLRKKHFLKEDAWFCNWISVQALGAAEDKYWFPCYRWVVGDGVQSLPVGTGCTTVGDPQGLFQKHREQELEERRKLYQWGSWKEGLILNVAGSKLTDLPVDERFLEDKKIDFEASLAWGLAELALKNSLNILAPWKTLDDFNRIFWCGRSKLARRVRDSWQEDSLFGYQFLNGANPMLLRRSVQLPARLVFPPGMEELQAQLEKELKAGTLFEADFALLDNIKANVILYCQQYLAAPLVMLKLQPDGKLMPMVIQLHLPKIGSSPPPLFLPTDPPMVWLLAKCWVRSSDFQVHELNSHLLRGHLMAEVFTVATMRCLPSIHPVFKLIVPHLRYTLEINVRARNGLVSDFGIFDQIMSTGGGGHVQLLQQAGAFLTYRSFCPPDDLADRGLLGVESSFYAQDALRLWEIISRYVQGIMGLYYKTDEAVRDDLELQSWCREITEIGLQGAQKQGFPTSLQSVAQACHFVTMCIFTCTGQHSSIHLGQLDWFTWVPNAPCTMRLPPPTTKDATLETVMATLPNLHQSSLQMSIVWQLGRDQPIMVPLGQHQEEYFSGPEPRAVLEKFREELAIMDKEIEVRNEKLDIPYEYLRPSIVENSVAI

Caspase-1 = molecular target: T3, Caspase-1 (Homo sapiens, UniProt P29466); design: species or system Escherichia coli;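 further: Caspase-1 enzyme inhibition assay with a peptide substrate; in other assays of this panel Not Active means under 50% inhibition at 10 µM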
T3 sequence (P29466 whole entry): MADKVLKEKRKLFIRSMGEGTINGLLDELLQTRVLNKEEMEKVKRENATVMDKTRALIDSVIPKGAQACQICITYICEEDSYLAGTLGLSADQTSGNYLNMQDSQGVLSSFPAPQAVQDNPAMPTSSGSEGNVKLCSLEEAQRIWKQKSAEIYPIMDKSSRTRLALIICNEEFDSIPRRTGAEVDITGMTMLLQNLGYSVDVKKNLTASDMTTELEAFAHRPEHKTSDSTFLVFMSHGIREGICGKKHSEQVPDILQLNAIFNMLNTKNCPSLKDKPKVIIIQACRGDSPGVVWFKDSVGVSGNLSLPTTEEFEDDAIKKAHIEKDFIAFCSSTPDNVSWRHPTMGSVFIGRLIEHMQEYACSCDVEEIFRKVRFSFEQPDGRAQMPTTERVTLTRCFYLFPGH

Chain of Beta-1 adrenergic receptor (P08588 whole entry): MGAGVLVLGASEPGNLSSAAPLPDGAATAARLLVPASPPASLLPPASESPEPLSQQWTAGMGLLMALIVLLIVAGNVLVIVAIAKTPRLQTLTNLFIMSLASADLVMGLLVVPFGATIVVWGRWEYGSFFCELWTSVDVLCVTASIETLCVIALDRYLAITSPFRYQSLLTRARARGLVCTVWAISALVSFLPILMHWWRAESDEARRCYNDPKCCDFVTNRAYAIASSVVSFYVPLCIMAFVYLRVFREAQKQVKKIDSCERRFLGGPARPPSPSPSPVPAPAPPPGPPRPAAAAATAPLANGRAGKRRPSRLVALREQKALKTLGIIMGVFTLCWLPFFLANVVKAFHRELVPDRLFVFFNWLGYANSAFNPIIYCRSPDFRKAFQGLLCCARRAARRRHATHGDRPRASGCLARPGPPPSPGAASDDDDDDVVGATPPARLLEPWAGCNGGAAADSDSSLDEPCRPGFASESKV

Compound	IC50 [1]	IC50 [2]	Ki [2]	IC50 (Endothelin-1 receptor)	IC50 [3]	IC50 (Caspase-1)	pIC50 [1]	pKi [1]	Ki [1]	Ki (Endothelin-1 receptor)	Ki [3]	Ki (Caspase-1)	pIC50 ([2]; read-out: IC50)	pKi ([2]; read-out: Ki)
CCC(=O)O[C@]1(C(=O)CCl)[C@@H](C)C[C@H]2[C@@H]3CCC4=CC(=O)C=C[C@]4(C)[C@@]3(F)[C@@H](O)C[C@@]21C [CLOBETASOL PROPIONATE]	Not Active	Not Active	Not Active	Not Active	Not Active	Not Active	–	–	–	–	–	–	–	–
CCCN(CCC)S(=O)(=O)c1ccc(C(=O)O)cc1 [PROBENECID]	Not Active	Not Active	Not Active	Not Active	Not Active	Not Active	–	–	–	–	–	–	–	–
O=C(O)CCNC(=O)c1ccccc1 [BETAMIPRON]	Not Active	Not Active	Not Active	Not Active	Not Active	Not Active	–	–	–	–	–	–	–	–
C[C@H]1O[C@@H](n2cc(F)c(=O)[nH]c2=O)[C@H](O)[C@@H]1O [DOXIFLURIDINE]	Not Active	Not Active	Not Active	Not Active	Not Active	Not Active	–	–	–	–	–	–	–	–
CC[C@H]1CN2CCc3cc(OC)c(OC)cc3[C@@H]2C[C@@H]1C[C@H]1NCCc2cc(OC)c(OC)cc21 [EMETINE]	Not Active	Not Active	Not Active	Not Active	Not Active	Not Active	–	–	–	–	–	–	–	–
O=c1cnn([C@@H]2O[C@H](CO)[C@@H](O)[C@H]2O)c(=O)[nH]1 [6-AZAURIDINE]	Not Active	Not Active	Not Active	Not Active	Not Active	Not Active	–	–	–	–	–	–	–	–
COC(=O)CCc1ccc(OCC(O)CNC(C)C)cc1 (stereo not drawn) [ESMOLOL]	–	Not Active	Not Active	Not Active	Not Active	Not Active	6.71	6.94	–	–	–	–	–	–
C[C@@H]1O[C@@H](O[C@@H]2C=C3CC[C@@H]4[C@H](CC[C@]5(C)[C@@H](c6ccc(=O)oc6)CC[C@]45O)[C@@]3(C)CC2)[C@H](O)[C@H](O)[C@H]1O [PROSCILLARIDIN]	Not Active	Not Active	Not Active	Not Active	Not Active	Not Active	–	–	–	–	–	–	–	–
NYSTATIN	Not Active	Not Active	Not Active	Not Active	Not Active	Not Active	–	–	Not Active	Not Active	Not Active	Not Active	–	–
COc1cc(N)c(Cl)cc1C(=O)NC1CCN(CCCOc2ccc(F)cc2)CC1OC (stereo not drawn) [CISAPRIDE]	Not Active	–	–	Not Active	Not Active	Not Active	–	–	–	–	–	–	6.75	6.96
C[C@@H]1C[C@H]2[C@@H]3CCC4=CC(=O)C=C[C@]4(C)[C@@]3(F)[C@@H](O)C[C@]2(C)[C@@]1(O)C(=O)CO [DEXAMETHASONE]	Not Active	Not Active	Not Active	Not Active	Not Active	Not Active	–	–	–	–	–	–	–	–
O=C(c1ccccc1C(F)(F)F)N1CCC(Cc2ccccc2)CC1	Not Active	Not Active	Not Active	Not Active	Not Active	Not Active	–	–	–	–	–	–	–	–
Brc1c(NC2=NCCN2)ccc2nccnc12 [BRIMONIDINE]	Not Active	Not Active	Not Active	Not Active	Not Active	Not Active	–	–	–	–	–	–	–	–
CC1(C)S[C@@H]2[C@H](NC(=O)[C@H](N)c3ccccc3)C(=O)N2[C@H]1C(=O)O [AMPICILLIN]	Not Active	Not Active	Not Active	Not Active	Not Active	Not Active	–	–	–	–	–	–	–	–
C[n+]1ccccc1/C=N/O.[Cl-] [PRALIDOXIME CHLORIDE]	Not Active	Not Active	Not Active	Not Active	Not Active	Not Active	–	–	–	–	–	–	–	–
COc1cc2nc(N3CCN(C(=O)c4ccco4)CC3)nc(N)c2cc1OC [PRAZOSIN]	Not Active	Not Active	Not Active	Not Active	Not Active	Not Active	–	–	–	–	–	–	–	–
Cc1c(OCC(F)(F)F)ccnc1C[S+]([O-])c1nc2ccccc2[nH]1 (stereo not drawn) [LANSOPRAZOLE]	Not Active	Not Active	Not Active	Not Active	Not Active	Not Active	–	–	–	–	–	–	–	–
CN1[C@@H]2CC[C@H]1C[C@@H](OC(=O)C(CO)c1ccccc1)C2 (stereo partly drawn) [ATROPINE]	Not Active	Not Active	Not Active	Not Active	Not Active	Not Active	–	–	–	–	–	–	–	–
COc1ccc(C2C(=O)c3ccccc3C2=O)cc1 [ANISINDIONE]	Not Active	Not Active	Not Active	Not Active	Not Active	Not Active	–	–	–	–	–	–	–	–
COC(=O)Nc1nc2ccc([S+]([O-])c3ccccc3)cc2[nH]1 (stereo not drawn) [OXFENDAZOLE]	Not Active	Not Active	Not Active	Not Active	Not Active	Not Active	–	–	–	–	–	–	–	–
CC(C(=O)O)c1ccc2oc(-c3ccc(Cl)cc3)nc2c1 (stereo not drawn) [BENOXAPROFEN]	Not Active	Not Active	Not Active	Not Active	Not Active	Not Active	–	–	–	–	–	–	–	–
Cc1cc2c(OCC(CNC(C)(C)C)OC(=O)c3ccccc3)cccc2[nH]1 (stereo not drawn) [BOPINDOLOL]	–	Not Active	Not Active	Not Active	Not Active	Not Active	7.33	7.57	–	–	–	–	–	–
Nc1ccn([C@@H]2O[C@H](CO)[C@@H](O)C2(F)F)c(=O)n1 [GEMCITABINE]	Not Active	Not Active	Not Active	Not Active	Not Active	Not Active	–	–	–	–	–	–	–	–
COc1ccc2[nH]cc(CCNC(C)=O)c2c1 [MELATONIN]	Not Active	Not Active	Not Active	Not Active	Not Active	Not Active	–	–	–	–	–	–	–	–
GADOPENTETATE DIMEGLUMINE	Not Active	Not Active	Not Active	Not Active	Not Active	Not Active	–	–	Not Active	Not Active	Not Active	Not Active	–	–
C#CC1(O)CC[C@H]2[C@@H]3CCC4=CC(=O)CC[C@@H]4[C@H]3CC[C@@]21CC (stereo partly drawn) [NORGESTREL]	Not Active	Not Active	Not Active	Not Active	Not Active	Not Active	–	–	–	–	–	–	–	–
C[n+]1ccc(-c2cc[n+](C)cc2)cc1.[Cl-].[Cl-] [PARAQUAT DICHLORIDE]	Not Active	Not Active	Not Active	Not Active	Not Active	Not Active	–	–	–	–	–	–	–	–
C[C@@H]1CC[C@@]2(OC1)O[C@H]1[C@@H](O)[C@H]3[C@@H]4CC[C@H]5C[C@@H](O[C@@H]6O[C@H](CO)[C@H](O[C@@H]7O[C@H](CO)C(O)[C@H](O[C@@H]8OC[C@@H](O)[C@H](O)[C@H]8O)[C@H]7O[C@@H]7O[C@H](CO)[C@H](O)[C@H](O[C@@H]8O[C@H](CO)[C@@H](O)[C@H](O)[C@H]8O)[C@H]7O)[C@H](O)[C@H]6O)[C@H](O)C[C@]5(C)[C@H]4CC[C@]3(C)[C@H]1[C@@H]2C (stereo partly drawn) [DIGITONIN]	Not Active	Not Active	Not Active	Not Active	Not Active	Not Active	–	–	–	–	–	–	–	–
